Measurements published in patent publication US8410152B2 (Max-Planck-Gesellschaft zur Forderung der Wissenschaften e. …, priority 2006, dated 2013).

Key:
uninduced N2A cells = assay type: cell-based; conditions: cell death as percent of LDH released into medium vs total LDH, compound 10 μM
Procedure: Neurotoxicity assay: Neurotoxicity was assessed using an LDH (lactate dehydrogenase) assay kit (Roche, Mannheim, Germany) according to the manufacturer's specifications. In the viability assay the aggregation inhibitor compound was added at a final concentration of 10 μM to uninduced N2A cells. The activity of LDH was measured spectrophotometrically at 492 nm. Cell death was calculated as percent of LDH released into medium, compared to total LDH obtained after total cell lysis.

tau construct K19 = tau construct K19 (Homo sapiens, UniProt P10636); test: Thioflavine S (ThS) assay for aggregation of tau; assay type: biochemical; conditions: 10 μM tau construct K19, 2.5 μM heparin, ThS fluorescence; for DC50: read-out: DC50; for IC50: over night at 37° C., read-out: ID50 (the source's name)
Sequence of tau construct K19 (P10636 with tags, fused parts or gaps isoform P10636-2 limits assumed): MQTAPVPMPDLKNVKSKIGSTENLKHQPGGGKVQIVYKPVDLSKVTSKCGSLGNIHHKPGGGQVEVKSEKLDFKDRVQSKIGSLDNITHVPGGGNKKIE
Procedure: Thioflavine S (ThS) Assay for aggregation of tau: 10 μM of the tau construct K19 were incubated with compounds in a concentration range from 1 nM up to 200 μM in the presence of 2.5 μM heparin in 50 mM NH4Ac buffer over night at 37° C. After addition of 20 μM ThS the signal was measured at 521 nm (emission) at an excitation wavelength of 440 nm. The results of this assay are presented in the IC50 column and DC50 column of Table 1 below.

Structure (SMILES) | LDH (uninduced N2A cells) [%] | DC50 (tau construct K19) [µM] | IC50 (tau construct K19) [µM]
COc1cccc(-c2csc(NNC(=O)c3ccncc3)n2)c1 [Comp. 35, N′-[4-(3-methoxyphenyl)-1,3-thiazol-2-yl]isonicotinohydrazide] | 3.2 | > 200 | > 200
O=C(CCc1ccccc1)NNc1nc(-c2ccc(Br)cc2)cs1 [Comp. 36, N′-[4-(4-bromophenyl)-1,3-thiazol-2-yl]-3-phenylpropanohydrazide] | 3.3 | > 200 | > 200
O=C(NNc1nc(-c2ccccc2)cs1)c1ccc(-c2ccccc2)cc1 [Comp. 37, N′-(4-phenyl-1,3-thiazol-2-yl)-1,1′-biphenyl-4-carbohydrazide] | 3.6 | > 200 | > 200
O=C(NNc1nc(-c2ccc(Br)cc2)cs1)c1ccc2c(c1)OCO2 [Comp. 38, N′-[4-(4-bromophenyl)-1,3-thiazol-2-yl]-1,3-benzodioxole-5-carbohydrazide] | 4.6 | > 200 | > 200
O=C(NNc1nc(-c2ccc(Br)cc2)cs1)c1ccc(-c2ccccc2)cc1 [Comp. 39, N′-[4-(4-bromophenyl)-1,3-thiazol-2-yl]-1,1′-biphenyl-4-carbohydrazide] | 4.9 | > 200 | > 200
O=C(NNc1nc(-c2ccc(Br)cc2)cs1)c1ccc(F)cc1 [Comp. 40, N′-[4-(4-bromophenyl)-1,3-thiazol-2-yl]-4-fluorobenzohydrazide] | 4.9 | > 200 | > 200
O=C(NNc1nc(-c2ccccc2)cs1)c1ccccc1F [Comp. 41, 2-fluoro-N′-(4-phenyl-1,3-thiazol-2-yl)benzohydrazide] | 6.5 | 127 | > 200
O=C(NNc1nc(-c2ccccc2)cs1)c1ccc2ccccc2c1 [Comp. 42, N′-(4-phenyl-1,3-thiazol-2-yl)-2-naphthohydrazide] | 8.2 | 16.4 | > 200
O=C(NNc1nc(-c2ccc(Br)cc2)cs1)c1ccc2[nH]cnc2c1 [Comp. 43, N′-[4-(4-bromophenyl)-1,3-thiazol-2-yl]-1H-benzimidazole-5-carbohydrazide] | 11.5 | 31.7 | > 200
O=C(NNc1nc2c(s1)Cc1ccccc1-2)c1ccc2c(c1)OCO2 [Comp. 44, N′-8H-indeno[1,2-d][1,3]thiazol-2-yl-1,3-benzodioxole-5-carbohydrazide] | 18.8 | > 200 | > 200
O=C(NNc1nc(-c2ccccc2)cs1)c1ccc2c(c1)OCO2 [Comp. 45, N′-(4-phenyl-1,3-thiazol-2-yl)-1,3-benzodioxole-5-carbohydrazide] | 22.6 | > 200 | > 200
O=C(NNc1nc(-c2cc3ccccc3oc2=O)cs1)c1ccc(-c2ccccc2)cc1 [Comp. 47, N′-[4-(2-oxo-2H-chromen-3-yl)-1,3-thiazol-2-yl]-1,1′-biphenyl-4-carbohydrazide] | 44.7 | > 200 | > 200
CC(C)(C)c1csc(NNC(=O)c2ccc(Cl)cc2)n1 [Comp. 48, N′-(4-tert-butyl-1,3-thiazol-2-yl)-4-chlorobenzohydrazide] | 48.1 | > 200 | > 200
Cc1nc(NNC(=O)c2ccc(-c3ccccc3)cc2)sc1-c1ccc(Br)cc1 [Comp. 64, N′-[5-(4-bromophenyl)-4-methyl-1,3-thiazol-2-yl]-1,1′-biphenyl-4-carbohydrazide] | 8.9 |  | > 200
O=C(NNc1nc(-c2ccc(N3CCCC3)cc2)cs1)c1ccc(F)nc1 [Comp. 75, 6-fluoro-N′-[4-(4-pyrrolidin-1-ylphenyl)-1,3-thiazol-2-yl]nicotinohydrazide] | 12.2 | 44.6 | 42.1
